Data on one compound can be found in ChEMBL document CHEMBL2321863, “Novel Inverse Binding Mode of Indirubin Derivatives Yields Improved Selectivity for DYRK Kinases” (ACS Med Chem Lett, 2013).

The structures appear in SMILES notation. Some results are limits rather than exact numbers.

The target in this experiment is Glycogen synthase kinase 3 beta (Sus scrofa, UniProt B2LUN4). The experiment in a line: Inhibition of porcine brain GSK3beta using YRRAAVPPSPSLSRHSSPHQSpEDEEE as substrate.
Sequence of Glycogen synthase kinase 3 beta (B2LUN4 whole entry): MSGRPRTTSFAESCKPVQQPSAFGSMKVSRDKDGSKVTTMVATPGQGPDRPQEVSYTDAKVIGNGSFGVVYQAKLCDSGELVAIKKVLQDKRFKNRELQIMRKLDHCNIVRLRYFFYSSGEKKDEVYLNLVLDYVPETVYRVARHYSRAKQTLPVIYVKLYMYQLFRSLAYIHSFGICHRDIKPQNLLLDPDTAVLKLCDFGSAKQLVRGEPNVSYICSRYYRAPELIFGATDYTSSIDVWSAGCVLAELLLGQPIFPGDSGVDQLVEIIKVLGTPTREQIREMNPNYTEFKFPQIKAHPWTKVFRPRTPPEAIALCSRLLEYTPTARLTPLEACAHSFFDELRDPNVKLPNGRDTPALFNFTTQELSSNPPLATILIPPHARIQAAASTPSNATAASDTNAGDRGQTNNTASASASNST

For the compound `Cn1c(O)c(-c2[nH]c3ccccc3c2N=O)c2cccc(Br)c21`, the IC50 is over 10 µM.
